Assays:
Format in all cases: biochemical
[1] = target: T1, D-alanyl-D-alanine-carboxypeptidase produced by Actinomadura R 39 (enzyme R 39), immobilized (Actinomadura sp., UniProt P39045); test: Dosage of cephalosporin C in serum with immobilized enzyme R 39 (Example 3)
T1 construct: which is excreted by Actinomadura R 39 when this microorganism; made in house; host or cells: Actinomadura R 39 (natural producer; deposit Institut Pasteur No. I-127), purified as in Frere et al., Biochem. J. 143 (1974) 233-240
Protocol: (§1) A series of 1 ml milk samples each containing a known concentration of penicillin G and two 1 ml milk samples (blank and control) not containing penicillin G are prepared.
(§2) 5.5 mg of immobilized enzyme R 39 (=3 picomols of enzyme) are added to each sample and the mixture is incubated for 20 minutes at 37° C.
(§3) The milk is then separated from the immobilized enzyme by filtration and the immobilized enzyme is washed three times with 1 ml of 0.1M Hepes buffer (pH=7.7) containing 0.1M NaCl and 0.05M MgCl2.
(§4) Either 20 μl of 0.1M Hepes buffer (pH=7.7) containing 0.1M NaCl and 0.05M MgCl2 and 10 μl of the substrate solution (in the case of the control sample and the samples containing penicillin G), or 20 μl of the Hepes buffer and 10 μl of water (in the case of the blank sample), are then added to the separated and washed immobilized enzyme. The mixture is incubated for 30 minutes at 37° C.
(§5) At the end of this incubation, 2 μl of the D-amino acid oxidase suspension, 60 μl of the FAD solution, 10 μl of the peroxidase solution and 5 μl of the o-dianisidine solution are added respectively to the product obtained; the mixture is then incubated again for 10 minutes at 37° C.
(§6) The optical density of the colored solutions obtained is then measured on a spectrophotometer. For this purpose, 1 ml of a methanol/water solution (proportions 1:1) is added to the cell and the optical density is measured at 460 nm.
(§7) The optical density value found for the blank sample is subtracted from the optical density values found respectively for the control sample and for the other samples. Finally, the percentage residual enzymatic activity is calculated for each sample from the optical density values thus obtained.
The procedure of Example 1 is followed, using the same reagents but replacing the 1 ml milk samples by 1 ml serum samples containing each a known concentration of cephalosporin C.

[2] = target: T1, D-alanyl-D-alanine-carboxypeptidase produced by Actinomadura R 39 (enzyme R 39), immobilized; test: Dosage of cephalosporin C in serum with immobilized enzyme R 39 at higher temperature (Example 4)
Protocol: The procedure of Example 3 is followed but each incubation is carried out at 47° C. and at half the time.
Moreover, to each ml sample of serum, there is previously added 100 μl of 0.5M (pH 7.7) Hepes buffer containing 0.5M NaCl and 0.25M MgCl2.

[3] = target: T1, D-alanyl-D-alanine-carboxypeptidase produced by Actinomadura R 39 (enzyme R 39), immobilized; test: Determination of penicillin G in milk with immobilized enzyme R 39 (Example 1); conditions: for coloration observed / optical density at 460 nm / optical density found minus optical density of the blank sample / percentage residual enzymatic activity: 1 ml milk; for percentage residual enzymatic activity: 20 min
Protocol: as §1, §2, §3, §4, §5, §6, §7

[4] = target: T1, D-alanyl-D-alanine-carboxypeptidase produced by Actinomadura R 39 (enzyme R 39), immobilized; test: Determination of penicillin G in serum with immobilized enzyme R 39 (Example 2); conditions: 1 ml serum; for percentage residual enzymatic activity: 20 min
Protocol: as §1, §2, §3, §4, §5, §6, §7
(§8) The procedure of Example 1 is followed, using the same reagents but replacing the 1 ml milk samples by 1 ml serum or 1 ml urine samples.

[5] = target: T1, D-alanyl-D-alanine-carboxypeptidase produced by Actinomadura R 39 (enzyme R 39), immobilized; test: Determination of penicillin G in urine with immobilized enzyme R 39 (Example 2); conditions: 1 ml urine; for percentage residual enzymatic activity: 20 min
Protocol: as §1, §2, §3, §4, §5, §6, §7, §8

[6] = cephalosporin C 1 ng/ml, 1 ml serum, 37° C.
[7] = cephalosporin C 2 ng/ml, 1 ml serum, 37° C.
[8] = cephalosporin C 10 ng/ml, 1 ml serum, 37° C.
[9] = cephalosporin C 1 ng/ml, 1 ml serum, each incubation at 47° C. and half the time
[10] = cephalosporin C 2 ng/ml, 1 ml serum, each incubation at 47° C. and half the time
[11] = cephalosporin C 10 ng/ml, 1 ml serum, each incubation at 47° C. and half the time
[12] = penicillin G 0.0005 I.U./ml, 1st series
[13] = penicillin G 0.0005 I.U./ml, 2nd series
[14] = penicillin G 0.0010 I.U./ml, 1st series
[15] = penicillin G 0.0010 I.U./ml, 2nd series
[16] = penicillin G 0.0015 I.U./ml, 2nd series
[17] = penicillin G 0.0020 I.U./ml, 1st series
[18] = penicillin G 0.0020 I.U./ml, 2nd series
[19] = penicillin G 0.0041 I.U./ml, 1st series
[20] = penicillin G 0.0082 I.U./ml, 1st series

T1 sequence (P39045 50-538): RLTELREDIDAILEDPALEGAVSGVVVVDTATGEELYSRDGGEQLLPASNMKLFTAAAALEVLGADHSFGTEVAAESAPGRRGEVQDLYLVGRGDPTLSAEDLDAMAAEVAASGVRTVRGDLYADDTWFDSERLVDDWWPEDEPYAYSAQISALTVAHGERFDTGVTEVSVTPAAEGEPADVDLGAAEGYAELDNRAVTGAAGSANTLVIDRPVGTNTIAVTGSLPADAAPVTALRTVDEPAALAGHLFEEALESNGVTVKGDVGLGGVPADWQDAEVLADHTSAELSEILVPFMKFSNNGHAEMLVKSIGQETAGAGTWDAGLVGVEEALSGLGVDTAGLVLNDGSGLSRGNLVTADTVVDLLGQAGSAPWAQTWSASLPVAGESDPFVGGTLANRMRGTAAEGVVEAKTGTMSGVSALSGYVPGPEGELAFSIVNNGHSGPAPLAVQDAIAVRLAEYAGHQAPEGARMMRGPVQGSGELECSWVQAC

CC(=O)OCC1=C(C(=O)O)N2C(=O)[C@@H](NC(=O)CCC[C@@H](N)C(=O)O)[C@H]2SC1 [cephalosporin C]
remaining activity at 0.001 µg/mL ([1]; 20 min, read-out: percentage residual enzymatic activity): 44%
remaining activity at 0.002 µg/mL ([1]; 20 min, cephalosporin C 2 ng/ml, 1 ml serum, 37° C., read-out: percentage residual enzymatic activity): 8%
remaining activity at 0.01 µg/mL ([1]; 20 min, cephalosporin C 10 ng/ml, 1 ml serum, 37° C., read-out: percentage residual enzymatic activity): 0%
coloration observed [1, 6]: light yellow
optical density at 460 nm [1, 6]: 0.085
optical density found minus optical density of the blank sample [1, 6]: 0.055
coloration observed [1, 7]: light yellow
optical density at 460 nm [1, 7]: 0.040
optical density found minus optical density of the blank sample [1, 7]: 0.010
coloration observed [1, 8]: light yellow
optical density at 460 nm [1, 8]: 0.030
optical density found minus optical density of the blank sample [1, 8]: 0.000
remaining activity at 0.01 µg/mL ([2]; 10 min, read-out: percentage residual enzymatic activity): 0%
remaining activity at 0.001 µg/mL ([2]; 10 min, cephalosporin C 1 ng/ml, 1 ml serum, each incubation at 47° C. and half the time, read-out: percentage residual enzymatic activity): 41%
remaining activity at 0.002 µg/mL ([2]; 10 min, cephalosporin C 2 ng/ml, 1 ml serum, each incubation at 47° C. and half the time, read-out: percentage residual enzymatic activity): 0%
coloration observed [2, 9]: light brown
optical density at 460 nm [2, 9]: 0.095
optical density found minus optical density of the blank sample [2, 9]: 0.060
coloration observed [2, 10]: light yellow
optical density at 460 nm [2, 10]: 0.035
optical density found minus optical density of the blank sample [2, 10]: 0.000
coloration observed [2, 11]: light yellow
optical density at 460 nm [2, 11]: 0.040
optical density found minus optical density of the blank sample [2, 11]: 0.005

CC1(C)S[C@@H]2[C@H](NC(=O)Cc3ccccc3)C(=O)N2[C@H]1C(=O)O [penicillin G, benzylpenicillin]
coloration observed [3, 12]: brown
optical density at 460 nm [3, 12]: 0.170
optical density found minus optical density of the blank sample [3, 12]: 0.135
percentage residual enzymatic activity [3, 12]: 82%
coloration observed [3, 13]: yellow-brown
optical density at 460 nm [3, 13]: 0.145
optical density found minus optical density of the blank sample [3, 13]: 0.110
percentage residual enzymatic activity [3, 13]: 69%
coloration observed [3, 14]: yellow-brown
optical density at 460 nm [3, 14]: 0.150
optical density found minus optical density of the blank sample [3, 14]: 0.115
percentage residual enzymatic activity [3, 14]: 69%
coloration observed [3, 15]: yellow-brown
optical density at 460 nm [3, 15]: 0.100
optical density found minus optical density of the blank sample [3, 15]: 0.065
percentage residual enzymatic activity [3, 15]: 41%
coloration observed [3, 16]: yellow
optical density at 460 nm [3, 16]: 0.055
optical density found minus optical density of the blank sample [3, 16]: 0.020
percentage residual enzymatic activity [3, 16]: 12%
coloration observed [3, 17]: light yellow
optical density at 460 nm [3, 17]: 0.035
optical density found minus optical density of the blank sample [3, 17]: 0.000
percentage residual enzymatic activity [3, 17]: 0%
coloration observed [3, 18]: light yellow
optical density at 460 nm [3, 18]: 0.040
optical density found minus optical density of the blank sample [3, 18]: 0.005
percentage residual enzymatic activity [3, 18]: 3%
coloration observed [3, 19]: light yellow
optical density at 460 nm [3, 19]: 0.040
optical density found minus optical density of the blank sample [3, 19]: 0.005
percentage residual enzymatic activity [3, 19]: 3%
coloration observed [3, 20]: light yellow
optical density at 460 nm [3, 20]: 0.035
optical density found minus optical density of the blank sample [3, 20]: 0.000
percentage residual enzymatic activity [3, 20]: 0%
residual enzymatic activity ([3]; sample containing 0.002 I.U. or more per ml of milk): zero
concentration determined visually (light yellow coloration) [4]: at least 0.003 I.U./ml
coloration observed ([4]; penicillin G 0.003 I.U./ml): light yellow
optical density at 460 nm ([4]; penicillin G 0.003 I.U./ml): 0.035
optical density found minus optical density of the blank sample ([4]; penicillin G 0.003 I.U./ml): 0.005
percentage residual enzymatic activity ([4]; penicillin G 0.003 I.U./ml): 4%
coloration observed ([4]; penicillin G 0.010 I.U./ml): light yellow
optical density at 460 nm ([4]; penicillin G 0.010 I.U./ml): 0.030
optical density found minus optical density of the blank sample ([4]; penicillin G 0.010 I.U./ml): 0.000
percentage residual enzymatic activity ([4]; penicillin G 0.010 I.U./ml): 0%
concentration determined visually (light yellow coloration) [5]: at least 0.003 I.U./ml
coloration observed ([5]; penicillin G 0.003 I.U./ml): light yellow
optical density at 460 nm ([5]; penicillin G 0.003 I.U./ml): 0.040
optical density found minus optical density of the blank sample ([5]; penicillin G 0.003 I.U./ml): 0.010
percentage residual enzymatic activity ([5]; penicillin G 0.003 I.U./ml): 8%
coloration observed ([5]; penicillin G 0.010 I.U./ml): light yellow
optical density at 460 nm ([5]; penicillin G 0.010 I.U./ml): 0.035
optical density found minus optical density of the blank sample ([5]; penicillin G 0.010 I.U./ml): 0.005
percentage residual enzymatic activity ([5]; penicillin G 0.010 I.U./ml): 4%

Reference: patent publication US4546076A, “Enzymatic process for the determination of beta-lactam antibiotics” (U C B Societe Anonyme, priority 1982, dated 1985)
